Compound `CC1(C)Oc2ccc(Cl)cc2C(CS(=O)(=O)NCC(=O)NCCc2ccccc2)C1O` (stereo not drawn) had a melting point of 168 to 170 °C. On to `COC(=O)CCc1cc2ccc(C(F)(F)F)cc2[nH]1`, for which the melting point fell in the range of 108 to 110 °C. The compound `CC(C)Cn1c(=O)n(C)c(=O)c2c(Sc3cccs3)c(C(=O)c3cccnc3)sc21` showed a melting point of 111 to 115 °C. The same measure for `COc1ccc(C2COCCOC2)c2sc(NC(=O)c3ccnc(CN4CCCC4)c3)nc12`: 108 to 111 °C; for `O=C(NC(Cc1ccccc1[N+](=O)[O-])c1ccccc1)C1CCCCC1` (stereo not drawn): 210 to 212 °C. The compound `O=C(c1ccccn1)c1cc(Br)ccc1-n1cnnc1CCl` displayed a melting point of 147 to 149 °C. The same measure for `CCCOC(=O)c1cc(-n2c(OC)nc(C(F)(F)F)cc2=O)c(F)cc1Cl`: 55 to 57 °C; for `COC(=O)c1ccc2c(c1)C(=O)C(C)C(c1ccccc1)=N2` (stereo not drawn): > 300 °C; for `CCOC(=O)C(=CNc1c[nH]nn1)C(=O)c1cc(F)c(F)cc1F`: 157 to 159 °C. `CCc1nc(-c2ncn3c4ccccc4c(=O)n(C)c23)no1`: the melting point was 199 to 202 °C. The same measure for `CC(C)(CC(=O)C(=O)Nc1ccc2c(c1)COC2=O)c1cccc(I)c1`: 160 to 161 °C; for `CCCOc1ccccc1-c1nc2nc(NCC)ncc2c(=O)[nH]1`: 181 to 182 °C. Consider `Cc1oc(-c2ccc(Cl)cc2)nc1CO`, for which the melting point lay within 130 to 131 °C.

The compound `CC(C(=O)O)c1ccc2c(c1)C(=O)CC(C(C)(C)C)O2` (stereo not drawn) showed a melting point of 117 to 118 °C. For `Cc1ccccc1NC(=NC#N)NC(NC(=O)Cc1ccc(Cl)cc1)C(C)(C)C` (stereo not drawn) the value was 181 to 182 °C; for `CCc1ccc(S(=O)(=O)c2c(N)c3nncn3c3nc4ccccc4nc23)cc1`, > 300 °C. Turning to `Cc1c(C#N)[nH]n(-c2ccc(Cl)c(Cl)c2)c1=O`, the melting point came out at 210 °C. Take `C#CCn1c(=O)sc2cc(F)c(-n3c(=O)cc(C)[nH]c3=O)cc21`: the melting point was > 250 °C. For `NCC1Cc2cc(-c3ccccc3)cc(-c3ccccc3)c2O1` (stereo not drawn) the value was > 250 °C. For `CCOC(=O)C1(CNC(=O)C=CC(Cc2ccc3ccccc3c2)N(C)C(=O)c2cc(C(F)(F)F)cc(C(F)(F)F)c2)CCCC1` (stereo not drawn) the value was 136 to 138 °C; for `COC(=O)CC(=O)c1cc(C(=O)OC)cc(-n2cccc2)c1`, 82 to 84 °C; for `COc1cc(OC)c2c(=O)[nH]c(-c3cc(-c4ccc(S(C)=O)cc4)cs3)nc2c1` (stereo not drawn), > 300 °C. The same measure for `C=CCN1CC(=O)N(c2c(C)cccc2C)C1=S`: 43 to 46 °C; for `O=C1C(=O)c2c(nc3ccccn23)-c2cccc(Cl)c21`: > 260 °C; for `CCOC(=O)C1=C(N)NC(N)=C(C(=O)OCC)C1c1cccc(C(=O)OCC)c1`: 191 °C. `CN1C(=O)c2cnc(-c3ccccc3)nc2N(C(=O)CCl)c2ccccc21` displayed a melting point of 189 to 190 °C. In the case of `COc1ccc(-c2nc(Sc3ccccc3)n(C)c2-c2ccc(OC)cc2)cc1`, the melting point was 115 to 117 °C.

The compound `CCOC(=O)c1cnn2c1c(N1CCN(c3ccccc3)CC1)nc1ccccc12` registered a melting point of 134 to 135 °C. The same measure for `Cc1ccc(-c2cc(C(=O)O)nn2Cc2ccc(C)c(Cl)c2)cc1C`: 163 °C; for `COc1ccc(C2CCCCC2)cc1-c1csc(NC(=O)N2CCN(C(=O)C3CCOCC3)CC2)n1`: 276 °C; for `Cc1cc(-c2cc(CO)c(=O)n(Cc3ccc(Cl)cc3)n2)ccc1F`: 157 to 158 °C. For `COC(=O)C(=O)Nc1ccc(C#N)c(NC(=O)C(=O)OC)c1` the value was 155 to 160 °C. In the case of `CSC(C(=O)O)c1ccco1` (stereo not drawn), the melting point fell in the range of 62 to 62.5 °C. Consider `COc1ccc(-c2c[nH]c(=O)nc2C)cc1`, for which the melting point is 210 °C. For the compound `Cc1c(NC(=O)OCc2ccccc2)cccc1C(C[N+](=O)[O-])c1c[nH]c2cc(OC3CCOC3)ccc12` (stereo not drawn), the melting point is 130 °C. `NC(=O)Cn1c(=O)ccc2cc(Br)ccc21`: the melting point lay within 257 to 258 °C. The compound `CC(=O)NC(=CC(=O)[C@H](Cc1ccccc1)N(Cc1ccccc1)Cc1ccccc1)Cc1ccccc1` came in with a melting point of 95 to 96 °C. In turn, `CS(=O)(=O)N1CCC(C=O)CC1` yielded a melting point of 97 °C. For `CCCCCC1=CCC(c2cc(F)c(C#N)c(F)c2)C=C1` (stereo not drawn) the value was 59 °C; for `Cc1ccc(C)c2c(C=O)c3ccccc3c(C=O)c12`, 158 to 162 °C. Consider `CSC(=O)C(=O)c1cc(NC=O)ccn1`, for which the melting point was in the range of 145 to 148 °C.

With `Cc1ccc(C(=O)OC2CCC3(C)C(=CCC4C3CCC3(C)C(=NO)CCC43)C2)cc1` (stereo not drawn), the melting point is 135 to 139 °C. For `CCN(CC)CCCNc1ncc2cc(-c3c(Cl)cccc3Cl)c(N=CN(C)C)nc2n1` the value was 100 to 104 °C; for `Cc1cnc(NC(=O)c2cc(Oc3ccc(C(=O)N4CCC4)cc3F)cc(O[C@@H](C)CO)c2)cn1`, 172 °C; for `O=C1NC(=O)C(c2sccc2Br)O1` (stereo not drawn), 138 to 139 °C. The compound `Cn1nc2c(-c3ccc(Cl)cc3Cl)cccc2c1C(=O)NCCO` registered a melting point of 188 to 190 °C. The same measure for `CC(CC=Cc1ccccc1)C1CC=C2C3=C(CCC21C)C1(C)CCC(O)C(C)(C)C1CC3` (stereo not drawn): 127 °C; for `CNn1c(SC)nnc(-c2ccccc2)c1=O`: 119 to 120 °C; for `COc1cc(C(=O)N2CCC(CCN3CCC(C(=O)c4nc5ccccc5[nH]4)CC3)(c3ccccc3)C2)cc(OC)c1OC` (stereo not drawn): 108 to 111 °C.

As to `CC(=O)Nc1ccc(NC(=O)CCl)c(O)c1`, the melting point was 218 °C. Compound `COC(=O)C1(NC(=O)Cc2cc(C)ccc2C)CCN(OC)CC1` had a melting point of 91 to 93 °C. For `CC(=O)NCc1cccc(CCCOCCCCCCNCC(O)c2cc(Cl)c(N)c(Cl)c2)c1` (stereo not drawn) the value was 91 to 94 °C. The same measure for `CC(C)(C)OC(=O)NCCn1cc(C#N)c(-c2cccc(F)c2)c1Cl`: 97 to 99 °C; for `ON=Cc1c[nH]c2cccc(OCc3ccccc3)c12`: 206 to 210 °C. Compound `O=C(NCc1ccccc1)c1ccc2[nH]ccc2c1` had a melting point of 155 to 160 °C. The compound `O=C1CCC(N2Cc3cc(CNC(=O)Nc4cccc(Oc5ccccn5)c4)ccc3C2=O)C(=O)N1` (stereo not drawn) showed a melting point of 298 to 300 °C. The same measure for `C#CCOc1ccc2c(C)cc(=O)oc2c1C(=O)C=Cc1cc(OC)c(OC)c(OC)c1`: 191 to 193 °C; for `CCc1cnc2c(NC(=O)c3c(Cl)cccc3Cl)cccc2c1-n1ccnc1`: 187 to 188 °C. `O=c1c2c(Cl)cc(Cl)cc2nc2n1CCCCC2` registered a melting point of 110 to 112 °C. The same measure for `COC(=O)CC(O)C(O)CC(=O)OC` (stereo not drawn): 80 to 81 °C. `O=C(O)COc1ccc2c(=O)c3c(F)cccc3oc2c1Cl`: the melting point was 300 °C. Compound `CS(=O)(=O)c1cc([N+](=O)[O-])c(C(N)=O)cc1N1CC1` gave a melting point of 222 to 224 °C. Take `CC(=S)NCC1CN(c2ccc(S(=O)CCF)c(F)c2)C(=O)O1` (stereo not drawn): the melting point came out at 161 °C. With `CC(C)(C)c1nc(C=C2SC(=S)N(N)C2=O)nc(C(C)(C)C)c1O`, the melting point lay within 194 to 196 °C. `CCc1c(C(=O)C(N)=O)c2c(OCC(=O)N(C)OCc3ccccc3)cccc2n1Cc1ccccc1` registered a melting point of 186 to 188 °C. `CCc1cnc(N2CCN(C(=O)c3ccc(CNc4nc(-c5ccccc5)nc5ccccc45)cc3)CC2)nc1` yielded a melting point of 207 to 208 °C. In turn, `CCCCCCCCCCCCCCOC(=O)CCCCc1cc(O)c(O)c([N+](=O)[O-])c1` yielded a melting point of 46 to 47 °C. Take `COc1cccc2c1cc(C)n2Cc1ccccc1`: the melting point lay within 96 to 116 °C. `CCC(O)CN1CCC(CCN2CCN(c3cccc(Cl)c3Cl)CC2)CC1` (stereo not drawn) showed a melting point of 94 °C. For `Cc1nc(-c2ccc(C#N)cc2)sc1C(=O)N[C@H](C)[C@](O)(Cn1cncn1)c1ccc(Cl)cc1Cl`, the melting point was 109 to 113 °C. Compound `OC(Cc1ccc(F)cc1)c1ccc(F)cc1` (stereo not drawn) showed a melting point of 48 to 50 °C. `COCOCc1oc2c(OC)cccc2c1CCSC(c1ccccc1)c1ccccc1` registered a melting point of 110 °C. Take `COc1cccc(CC(=O)O)c1OCCCc1cn(-c2ccc(Cl)cn2)nc1C(C)(C)C`: the melting point was 87 to 88 °C.

Take `COc1cc2c(cc1Nc1ncc(C(F)(F)F)c(N[C@H]3[C@@H](C(N)=O)[C@@H]4C=C[C@H]3C4)n1)CCN(CC(=O)N(C)C)CC2`: the melting point lay in the range of 133 to 135 °C. In the case of `CCCCc1nc2c(N)nc3ccccc3c2n1CCCNS(=O)(=O)c1ccc(C)cc1`, the melting point was 197 to 198 °C.

`CCOC(=O)C(C)(OC)C(=O)Nc1ccc(Br)cc1C` (stereo not drawn): the melting point lay in the range of 99 to 103 °C. With `CCCCc1nn2ccccc2c1Cc1ccc(Br)cc1`, the melting point is < 50 °C. `C=CCOc1ccc(NC(=O)CC(C#N)=C(C)O)cc1` showed a melting point of 162 to 164 °C. In the case of `CC(C)(O)CC(O)c1cccc(OCc2ccc3ccccc3n2)c1` (stereo not drawn), the melting point fell in the range of 117 to 124 °C. For `CCNCC1CCN(c2c(F)cc3c(=O)c(C(=O)O)cn(CC(F)(F)F)c3c2F)C1` (stereo not drawn) the value was 222 to 224 °C; for `COc1ccc2c(c1[N+](=O)[O-])CNCC(=O)N2`, 220 to 222 °C. `C#Cc1cc2c(cc1Cl)C=C(C(=O)O)C(C(F)(F)F)O2` (stereo not drawn): the melting point was > 300 °C. The compound `CC12CCC3c4cc(OCC(F)(F)F)c(O)cc4CCC3C1CCC2O` (stereo not drawn) registered a melting point of 167 to 168 °C.

Compound `Fc1cc(OC23CC4CC(CC(C4)C2)C3)ccc1N1CCCC1` returned a melting point of 99 to 106 °C. Take `Cc1nnc(OC(=O)NC(C)(C)C)n1-c1ccc(Cl)cn1`: the melting point is 132 to 134 °C. With `O=C(NCC1Cc2ccc3c(c2O1)CCCC3)OCc1ccccc1` (stereo not drawn), the melting point lay in the range of 88 to 90 °C. The same measure for `N#Cc1cnc(-c2c(Cl)cc(C(F)(F)F)cc2Cl)[nH]1`: 210 to 212 °C; for `CN(CC(O)(CO)c1ccccc1)S(=O)(=O)c1ccc(Cl)cc1` (stereo not drawn): 122 to 123 °C.

The record behind these values is a melting point compilation (Tetko et al.; mined from patent text by program, amines drawn as free bases though some values may be those of a salt).
